Data on 3 compounds can be found in paper PMC10663846 (The Journal of Biological Chemistry, 2023).

Peptide text beside a SMILES is read from it.

The conditions of data set [1]: human serum diluted 1:4 in RPMI 1640, 37 °C, peptide 10 μg/ml from DMSO stock, 48 h time course, ESI-MS peak area normalized to Angiotensin I. The method, then: Human serum was diluted 1:4 in Gibco RPMI 1640 media (ThermoFisher Scientific, Cat. No. 11–875–093) and incubated at 37 °C for 15 min before peptide stock was added at final concentration of 10 μg/ml. Time points were taken at room temperature and mixed with 200 μl of 3% TFA before a 15 min incubation on ice. Samples were centrifuged at 16,000g for 2.5 min and the supernatant was prepared for C18 desalting by adding 100 μl of 20% acetonitrile, 2% TFA before storage at −20 °C overnight. Samples were processed through Pierce C18 spin columns (ThermoFisher Scientific, Cat. No. 89870) according to the manufacturer’s instructions. Desalted samples were dried under nitrogen and stored at −20 °C until mass spectrometry analysis.
For MALDI-TOF-MS analysis, samples were reconstituted in 200 μl of 0.1% formic acid. Samples were diluted 1:10 in a MALDI matrix containing a 50 fmol/μl solution of Angiotensin I as a control, spotted onto the plate at a volume of 1 μl, and run on an Axima Performance MALDI TOF/TOF mass spectrometer (Shimadzu Scientific Instruments). Data was visualized with Axima Launchpad 2.8 software (Shimadzu Scientific Instruments). For ESI-MS analysis, samples were run on an Orbitrap Exploris 480 (ThermoFisher Scientific). […] ThermoFisher’s Xcalibur 4.0 Data System was used for peptide quantification via peak area (normalized based on Angiotensin I abundance).

In data set [2] the test system is OVCAR8 cells and human PBMCs co-culture, TNFα secretion. The data set can be described thus: OVCAR8:PBMC co-culture, secreted TNFα (ELISA). Conditions: 1:10 OVCAR8:PBMC, 24 h, MN1.4 500, 100 or 10 μM, rPD-L1 1 μM. Type of data set: cell-based. As for the experimental part:
The concentration of PBMCs required for a 1:10 OVCAR8:PBMC ratio was calculated from the OVCAR8 concentration.
(In general: ELISA stands for enzyme-linked immunosorbent assay.)

`CC[C@H](C)[C@H](NC(=O)[C@H](CCSC)NC(=O)[C@H](CS)NC(=O)[C@H](CCCNC(=N)N)NC(=O)[C@H](Cc1ccc(O)cc1)NC(C)=O)C(=O)N[C@@H](CO)C(=O)N[C@@H](Cc1ccc(O)cc1)C(=O)NCC(=O)NCC(=O)N[C@@H](C)C(=O)N[C@@H](CC(=O)O)C(=O)N[C@@H](Cc1ccc(O)cc1)C(=O)N[C@@H](CCCCN)C(=O)N[C@@H](CCCNC(=N)N)C(=O)N[C@H](C(=O)N[C@H](C(=O)N[C@H](C(N)=O)C(C)C)[C@@H](C)O)[C@@H](C)CC` gave a serum modification products (MALDI-TOF-MS) of 119 Da. Regarding `CC[C@H](C)[C@@H]1NC(=O)[C@H](CCSC)NC(=O)[C@H](C)NC(=O)[C@H](CCCNC(=N)N)NC(=O)[C@@H](NC(C)=O)CSSC[C@@H](C(N)=O)NC(=O)[C@H]([C@@H](C)O)NC(=O)[C@H]([C@@H](C)CC)NC(=O)[C@H](CCCNC(=N)N)NC(=O)[C@H](CCCCN)NC(=O)[C@H](Cc2ccc(O)cc2)NC(=O)[C@H](CC(=O)O)NC(=O)[C@H](C)NC(=O)CNC(=O)CNC(=O)[C@H](Cc2ccc(O)cc2)NC(=O)[C@H](CO)NC1=O` [MN1.2] (HELM PEPTIDE1{[ac].C.R.A.M.I.S.Y.G.G.A.D.Y.K.R.I.T.C.[am]}$PEPTIDE1,PEPTIDE1,2:R3-18:R3$$$V2.0), in data set [1], the “serum stability, degradation after 48 h” value is recorded as “detected at very low levels”.

In the case of Ac-YRCMISYGGADEKRITV-NH2 [MN_Null], in data set [2], the “TNFα levels compared to untreated co-culture control” value is “less immunosuppressive activity as compared to MN1.4”.
